Format in all cases: cell-based
The target in one assay is T1, human TLR7 (Homo sapiens, UniProt Q9NYK1).
T1 construct: host or cells: HEK-Blue cells
T1 sequence (Q9NYK1 27-1049): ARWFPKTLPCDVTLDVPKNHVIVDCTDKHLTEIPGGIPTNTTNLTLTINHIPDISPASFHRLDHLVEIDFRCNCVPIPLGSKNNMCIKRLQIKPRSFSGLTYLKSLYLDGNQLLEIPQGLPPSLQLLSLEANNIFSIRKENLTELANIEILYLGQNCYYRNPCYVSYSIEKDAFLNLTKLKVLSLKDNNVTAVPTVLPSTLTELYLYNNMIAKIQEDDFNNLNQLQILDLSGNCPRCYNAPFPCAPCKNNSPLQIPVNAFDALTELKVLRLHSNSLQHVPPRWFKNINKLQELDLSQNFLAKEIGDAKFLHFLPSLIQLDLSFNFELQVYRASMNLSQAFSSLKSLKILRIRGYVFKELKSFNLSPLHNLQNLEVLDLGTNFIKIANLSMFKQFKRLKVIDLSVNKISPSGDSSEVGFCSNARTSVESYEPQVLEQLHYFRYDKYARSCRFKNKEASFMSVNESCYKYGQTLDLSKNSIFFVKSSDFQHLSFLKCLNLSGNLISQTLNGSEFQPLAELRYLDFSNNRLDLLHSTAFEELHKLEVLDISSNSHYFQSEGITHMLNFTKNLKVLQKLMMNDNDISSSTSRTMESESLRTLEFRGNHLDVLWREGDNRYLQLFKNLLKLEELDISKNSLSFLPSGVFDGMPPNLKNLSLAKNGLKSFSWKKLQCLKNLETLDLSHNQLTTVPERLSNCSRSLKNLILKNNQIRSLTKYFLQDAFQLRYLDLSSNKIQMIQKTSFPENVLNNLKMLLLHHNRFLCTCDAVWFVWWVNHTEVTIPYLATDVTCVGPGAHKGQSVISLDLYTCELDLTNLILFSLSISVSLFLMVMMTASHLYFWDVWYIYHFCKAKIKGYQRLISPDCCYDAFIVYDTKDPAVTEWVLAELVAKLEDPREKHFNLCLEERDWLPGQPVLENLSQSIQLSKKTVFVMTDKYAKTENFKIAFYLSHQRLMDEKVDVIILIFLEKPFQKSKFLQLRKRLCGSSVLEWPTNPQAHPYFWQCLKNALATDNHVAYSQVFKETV
The assay can be described thus: TLR7 inhibition reporter assay (HEK-Blue SEAP reporter). Particulars: HEK-Blue cells overexpressing human TLR7; gardiquimod 7.5 μM; 22 hour incubation. The method, boiled down:
(§1)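 HEK-Blue cells overexpressing human TLR7, TLR8 or TLR9 carry a SEAP reporter driven by NF-κB/AP-1 sites. Compounds (0.05 nM–50 μM) were preincubated 30 min at room temperature, then cells were stimulated with gardiquimod 7.5 μM (TLR7), R848 15.9 μM (TLR8) or ODN2006 5 nM (TLR9) for 22 h at 37 °C.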

In the next assay the target is T2, human TLR8 (Homo sapiens, UniProt Q9NR97).
T2 construct: host or cells: HEK-Blue cells
T2 sequence (Q9NR97 27-1041): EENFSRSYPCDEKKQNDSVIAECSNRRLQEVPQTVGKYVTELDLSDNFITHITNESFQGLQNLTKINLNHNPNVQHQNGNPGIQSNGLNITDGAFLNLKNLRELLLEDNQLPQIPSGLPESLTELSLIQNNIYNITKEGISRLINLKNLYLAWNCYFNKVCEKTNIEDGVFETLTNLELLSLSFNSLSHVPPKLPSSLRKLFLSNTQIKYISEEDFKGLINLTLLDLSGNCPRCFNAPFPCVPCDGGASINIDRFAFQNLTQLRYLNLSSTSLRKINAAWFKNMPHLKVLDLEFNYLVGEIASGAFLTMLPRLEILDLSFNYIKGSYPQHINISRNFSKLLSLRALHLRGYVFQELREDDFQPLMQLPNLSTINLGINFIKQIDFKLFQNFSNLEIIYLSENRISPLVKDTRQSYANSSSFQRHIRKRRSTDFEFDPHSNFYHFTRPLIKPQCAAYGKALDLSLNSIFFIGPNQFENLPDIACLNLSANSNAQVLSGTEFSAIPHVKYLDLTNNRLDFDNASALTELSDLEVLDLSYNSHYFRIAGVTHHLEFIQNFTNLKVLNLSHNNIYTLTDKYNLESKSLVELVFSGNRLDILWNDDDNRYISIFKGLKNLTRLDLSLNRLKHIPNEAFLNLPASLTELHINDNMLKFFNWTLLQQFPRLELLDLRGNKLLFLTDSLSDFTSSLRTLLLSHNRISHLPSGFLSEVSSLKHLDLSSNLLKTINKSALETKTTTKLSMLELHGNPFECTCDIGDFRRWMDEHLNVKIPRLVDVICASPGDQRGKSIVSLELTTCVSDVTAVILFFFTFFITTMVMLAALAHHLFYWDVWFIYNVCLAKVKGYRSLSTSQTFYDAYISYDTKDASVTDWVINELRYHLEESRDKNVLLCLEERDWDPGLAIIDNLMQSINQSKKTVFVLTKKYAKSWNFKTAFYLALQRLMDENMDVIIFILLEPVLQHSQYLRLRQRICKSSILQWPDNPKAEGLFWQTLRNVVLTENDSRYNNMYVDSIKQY
In words: TLR8 inhibition reporter assay (HEK-Blue SEAP reporter). The conditions noted are these: HEK-Blue cells overexpressing human TLR8; R848 15.9 μM; 22 hour incubation. The method, boiled down:
as §1
On the technique in general: Reporter assays use an easily measured gene product as a stand-in for the process of interest.

The target in another assay is T3, human TLR9 (Homo sapiens, UniProt Q9NR96).
T3 construct: host or cells: HEK-Blue cells
T3 sequence (Q9NR96 26-1032): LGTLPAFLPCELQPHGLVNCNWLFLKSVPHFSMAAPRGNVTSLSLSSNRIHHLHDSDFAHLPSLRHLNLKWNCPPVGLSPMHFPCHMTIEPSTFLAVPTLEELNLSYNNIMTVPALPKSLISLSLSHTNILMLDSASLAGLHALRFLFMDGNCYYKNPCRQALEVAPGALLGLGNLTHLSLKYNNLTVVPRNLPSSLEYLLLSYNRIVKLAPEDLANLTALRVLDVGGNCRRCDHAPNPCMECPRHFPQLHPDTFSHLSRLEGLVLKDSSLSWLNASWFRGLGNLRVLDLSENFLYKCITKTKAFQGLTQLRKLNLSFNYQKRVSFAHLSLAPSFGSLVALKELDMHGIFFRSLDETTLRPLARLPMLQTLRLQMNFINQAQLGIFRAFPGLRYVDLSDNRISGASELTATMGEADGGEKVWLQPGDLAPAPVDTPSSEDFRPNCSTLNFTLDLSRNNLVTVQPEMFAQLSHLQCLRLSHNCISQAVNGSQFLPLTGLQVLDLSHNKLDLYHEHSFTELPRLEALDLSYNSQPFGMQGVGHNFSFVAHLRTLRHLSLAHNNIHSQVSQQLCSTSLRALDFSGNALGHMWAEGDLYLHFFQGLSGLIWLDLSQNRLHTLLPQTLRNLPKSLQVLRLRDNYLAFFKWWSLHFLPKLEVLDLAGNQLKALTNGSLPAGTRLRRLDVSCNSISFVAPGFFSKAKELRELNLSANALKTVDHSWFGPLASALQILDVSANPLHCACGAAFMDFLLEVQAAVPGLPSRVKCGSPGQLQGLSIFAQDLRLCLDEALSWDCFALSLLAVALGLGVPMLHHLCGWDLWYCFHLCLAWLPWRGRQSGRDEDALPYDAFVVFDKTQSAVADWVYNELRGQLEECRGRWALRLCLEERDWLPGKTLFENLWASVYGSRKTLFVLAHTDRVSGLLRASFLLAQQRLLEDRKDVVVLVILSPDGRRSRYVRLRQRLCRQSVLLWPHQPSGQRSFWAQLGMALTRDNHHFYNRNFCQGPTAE
In words: TLR9 inhibition reporter assay (HEK-Blue SEAP reporter). Particulars: HEK-Blue cells overexpressing human TLR9; ODN2006 5 nM; 22 hour incubation. The method, boiled down:
as §1

For orientation: IC50 means the concentration at which inhibition is half-maximal. High values mean weaker potency, low ones greater potency. `CCc1c(-c2ccc(OC)c(OC)c2)[nH]c2ccc(N3CCN(CCNC)CC3(C)C)cc12` [Example 150, 2-(4-(2-(3,4-dimethoxyphenyl)-3-ethyl-1H-indol-5-yl)-3,3-dimethylpiperazin-1-yl)-N-methylethan-1-amine]: the IC50 was 360 nM at human TLR7, 102 nM against human TLR8 and 425 nM on human TLR9.

With `COc1ccc(-c2[nH]c3ccc(N4CCC(N(C)C)C4)cc3c2C(C)C)cc1OC` (stereo not drawn) [Example 120, 1-(2-(3,4-dimethoxyphenyl)-3-isopropyl-H-indol-5-yl)-N,N-dimethylpyrrolidin-3-amine], the results for the half-inhibitory concentration (IC50) against human TLR7, against human TLR8 and at human TLR9 were 118 nM, 17 nM and 3290 nM, respectively.

As for `COc1ccc(-c2[nH]c3ccc(NC4CCC(NCCN5CCOCC5)CC4)cc3c2C(C)C)cc1OC` (stereo not drawn) [Example 47, N1-(2-(3,4-dimethoxyphenyl)-3-isopropyl-1H-indol-5-yl)-N4-(2-morpholinoethyl)cyclohexane-1,4-diamine], the IC50 at human TLR7 is 222 nM; against human TLR8, 276 nM; at human TLR9 it was 624 nM.

Regarding `CCc1c(-c2cc(OC)nc(OC)c2)[nH]c2ccc(N3CCN(C4CCN(C(C)C)CC4)CC3)cc12` [Example 173, 2-(2,6-dimethoxypyridin-4-yl)-3-ethyl-5-(4-(1-isopropylpiperidin-4-yl)piperazin-1-yl)-1H-indole], the IC50 against human TLR7 is 59 nM; against human TLR8, 9.8 nM; against human TLR9, 673 nM.

These data come from US11306092B2, “Amino indole compounds useful as TLR inhibitors” (BRISTOL-MYERS SQUIBB COMPANY, priority 2017, dated 2022).
